Results published in patent US7833543B2, “High viscosity liquid controlled delivery system and medical or surgical device” (Durect Corporation, priority 1995, dated 2010).

Tests used:
Assay type in all cases: physicochemical
[1] = Dissolution of AZT and ddC SAIB formulations in soft gelatin capsules (USP XXIII Apparatus 2, Method B)
Method: Zidovudine (AZT) and dideoxycytodine (ddC) suspensions were prepared by mixing drug with SAIB/solvent solutions with and without a cellulosic coexcipient. Approximately 1 g of each formulation was filled into soft gelatin capsules, which were heat sealed. Dissolution profiles were determined using Apparatus 2, Method B (USP XXIII) at a paddle speed of 50 rpm. Individual gelcaps were placed in separate dissolution vessels, and samples of the buffer in each vessel were obtained at 0.25, 0.5, 1, 2, 3, 6, and 24 hours. The samples were analyzed at 266 and 272 nm on a Perkin Elmer Lambda 20 UV-vis spectrophotometer for AZT and ddC drug content, respectively.

[2] = In vitro release of paclitaxel and 5-FU from SAIB formulations into buffer (UV-vis); conditions: for cumulative release: after 7 days, 37° C.
Method: Solutions of SAIB in the appropriate solvent were prepared with and without the incorporation of an additive. The active was weighed into a test tube and the SAIB/mixture was added and mixed thoroughly to yield a solution or suspension at the desired drug loading. Single drops of the mixture were precipitated into buffer by injection with standard syringes and needles. Samples were maintained at 37° C. in a shaker, sampled periodically, and analyzed by UV-vis spectrophotometry for active release. Paclitaxel and 5-FU samples were analyzed at 232 nm and 266 nm, respectively.

[3] = In vitro release of bupivacaine from precipitated drops into buffer (UV-vis 265 nm)
Method: CAPROL 10G4O (decaglycerol tetraoleate) was dissolved in benzyl benzoate at a weight ratio of 50:50. Bupivacaine was dissolved in this mixture at a concentration of 8.75 wt %. Drops weighing approximately 100 mg were precipitated into a test tube containing 40 mL of buffer. Samples of the buffer were removed at specified time points and replaced with fresh buffer. The samples were analyzed by UV-vis spectrophotometry at 265 nm to determine the concentration of bupivacaine in each buffer sample. At 4 hours, less than 7.5 wt % of the bupivacaine in the drop had been released to the buffer. At 48 hours, around 24.0 wt % of the bupivacaine had been released.
The 1,6-hexanediol lactate ε-hydroxycaproic acid produced in Example 1 was dissolved in N-methylpyrrolidone at a weight ratio of 70:30. 10 wt % bupivacaine base was then added to this mixture and dissolved. Drops weighing approximately 100 mg were precipitated into 40 mL buffer. Samples of buffer were removed at specified times and replaced with fresh buffer. Buffer samples were analyzed by UV-vis spectrophotometry at 265 nm to determine the concentration of bupivacaine in each buffer sample. At 4 hours, around 4.1 wt % of the bupivacaine contained in the precipitated drop had been released. At 24 hours, around 8.6 wt % of the bupivacaine had been released.

[4] = Aerosol formulation with propellant R-134a: solution formation and sprayability
Method: 5.33 g of a 10 wt % solution of bupivacaine in a composition containing 70:30 SAIB/NMP, prepared as described in U.S. Pat. No. 5,747,058, was added to an aerosol container. 14.32 g of propellant R-134a (1,1,1,2-tetrafluoroethane) was added.
5.44 g of a 10 wt % solution of bupivacaine in a composition containing 70:30 SAIB/NMP, prepared as described in U.S. Pat. No. 5,747,058, was added to an aerosol container. 16.55 g. of propellant R-134a (1,1,1,2-tetrafluoroethane) was added.
0.87 g of bupivacaine base was added to an aerosol container. 8.47 g of an SAIB/propylene carbonate solution (70:30) containing 2.5 wt % of a biodegradable polymer (65:35 DLPLG) was added to the container. 0.98 g of ethanol was added to help the drug dissolve. Once dissolved, approximately 16 g of propellant R-134a (1,1,1,2-tetrafluoroethane) was added.

[5] = Dissolution of SAIB in propellants; conditions: propellants 134a and 227, levels of 5 and 10 wt %
Method: SAIB was dissolved in propellants 134a (1,1,1,2-tetrafluoroethane) and 227 (1,1,1,2,3,3,3-heptafluoropropane) at levels of 5 and 10 wt %.

Cc1cn([C@H]2C[C@H](N=[N+]=[N-])[C@@H](CO)O2)c(=O)[nH]c1=O [AZT, Zidovudine]
cumulative percent released ([1]; 11.1 wt % AZT in 70:30 SAIB/Migylol 810, 2 hours): 104.1% | amount released ([1]; 11.1 wt % AZT in 85:15 SAIB/EtOH + 0.02 wt % CAB, 2 hours): 25.6% | amount released ([1]; 11.1 wt % AZT in 85:15 SAIB/EtOH + 0.2 wt % CAB, 2 hours): 7.6% | cumulative percent released ([1]; 11.1 wt % AZT in 85:15 SAIB/EtOH, 2 hours): 71.2% | cumulative percent released ([1]; active loading doubled to 22.2 wt % in 85:15 SAIB/EtOH): 93.8%

O=c1[nH]cc(F)c(=O)[nH]1 [Example 5-FU, 5-fluorouracil]
percent released ([2]; 10 mg/mL 5-FU in 85:15 SAIB/EtOH + 5 wt % Cremophor EL, after two days): 106.0% | amount released ([2]; 10 mg/mL 5-FU in 85:15 SAIB/EtOH + Pluronic L-101, after two days): 102.0% | percent released ([2]; 10 mg/mL 5-FU in 85:15 SAIB/EtOH, no surfactant, after two days): 80.6%

CCCCN1CCCCC1C(=O)Nc1c(C)cccc1C (stereo not shown) [bupivacaine]
bupivacaine contained in the precipitated drop released ([3]; 1,6-hexanediol lactate ε-hydroxycaproic acid (Example 1)/N-methylpyrrolidone 70:30, 10 wt % bupivacaine base, 4 hours): around 4.1 wt % | bupivacaine released ([3]; 1,6-hexanediol lactate ε-hydroxycaproic acid (Example 1)/N-methylpyrrolidone 70:30, 10 wt % bupivacaine base, 24 hours): around 8.6 wt % | bupivacaine in the drop released to the buffer ([3]; CAPROL 10G4O (decaglycerol tetraoleate)/benzyl benzoate 50:50, 8.75 wt % bupivacaine, 4 hours): less than 7.5 wt % | bupivacaine released ([3]; CAPROL 10G4O (decaglycerol tetraoleate)/benzyl benzoate 50:50, 8.75 wt % bupivacaine, 48 hours): around 24.0 wt % | sprayability of aerosol mixture ([4]; 0.87 g bupivacaine base, 8.47 g SAIB/propylene carbonate (70:30) with 2.5 wt % 65:35 DLPLG, 0.98 g ethanol, approx. 16 g R-134a): easily sprayed with no bubbling or foaming | sprayability of aerosol mixture ([4]; 5.33 g of 10 wt % bupivacaine in 70:30 SAIB/NMP + 14.32 g propellant R-134a): easily sprayed with no bubbling or foaming | sprayability of aerosol mixture ([4]; 5.44 g of 10 wt % bupivacaine in 70:30 SAIB/NMP + 16.55 g propellant R-134a): easily sprayed with no bubbling or foaming

Nc1ccn([C@H]2CC[C@@H](CO)O2)c(=O)n1 [ddC, dideoxycytodine]
cumulative percent released ([1]; 0.225 wt % ddC in 70:30 SAIB/Migylol 810, 2 hours): 74.2% | amount released ([1]; 0.225 wt % ddC in 85:15 SAIB/EtOH + 0.5 wt % CAB, 2 hours): 39.4% | amount released ([1]; 0.225 wt % ddC in 85:15 SAIB/EtOH + 1.0 wt % CAB, 2 hours): 13.5% | cumulative percent released ([1]; 0.225 wt % ddC in 85:15 SAIB/EtOH, 2 hours): 59.5%

CC(=O)O[C@H]1C(=O)[C@@]2(C)[C@H]([C@H](OC(=O)c3ccccc3)[C@]3(O)C[C@H](OC(=O)[C@H](O)[C@@H](NC(=O)c4ccccc4)c4ccccc4)C(C)=C1C3(C)C)[C@]1(OC(C)=O)CO[C@@H]1C[C@@H]2O [paclitaxel]
percent released ([2]; 25 mg/mL paclitaxel in 85:15 SAIB/EtOH + 5 wt % Cremophor EL, after two days in vitro): 77.0% | percent released ([2]; 25 mg/mL paclitaxel in 85:15 SAIB/EtOH, no surfactant, after two days in vitro): 56.0% | cumulative release ([2]; drug loading 5 mg/mL): 106.4% | cumulative release ([2]; drug loading 25 mg/mL): 85.9% | cumulative release ([2]; drug loading 50 mg/mL): 33.8%

sucrose acetate isobutyrate [SAIB]
appearance on dissolution in propellants [5]: Clear solutions were formed
